Test results published in ChEMBL document CHEMBL5291721, “A preclinical secondary pharmacology resource illuminates target-adverse drug reaction associations of marketed drugs” (Nat Commun, 2023).

Assays:
[1] = target: T1, Mu-type opioid receptor (Homo sapiens, UniProt P35372)
[2] = target: T2, Adenosine receptor A1 (Homo sapiens, UniProt P30542)
T2 sequence (P30542 whole entry): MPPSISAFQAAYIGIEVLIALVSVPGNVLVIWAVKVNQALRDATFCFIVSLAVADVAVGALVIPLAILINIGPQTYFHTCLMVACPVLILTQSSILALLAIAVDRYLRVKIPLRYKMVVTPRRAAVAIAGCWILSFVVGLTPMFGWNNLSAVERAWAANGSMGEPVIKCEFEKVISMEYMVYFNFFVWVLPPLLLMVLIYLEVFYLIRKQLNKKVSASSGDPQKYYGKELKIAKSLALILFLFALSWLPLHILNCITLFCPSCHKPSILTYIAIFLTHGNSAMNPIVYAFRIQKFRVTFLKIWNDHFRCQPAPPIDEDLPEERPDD

[3] = target: Beta-1 adrenergic receptor (Homo sapiens, UniProt P08588); type: functional
Beta-1 adrenergic receptor, sequence (P08588 whole entry): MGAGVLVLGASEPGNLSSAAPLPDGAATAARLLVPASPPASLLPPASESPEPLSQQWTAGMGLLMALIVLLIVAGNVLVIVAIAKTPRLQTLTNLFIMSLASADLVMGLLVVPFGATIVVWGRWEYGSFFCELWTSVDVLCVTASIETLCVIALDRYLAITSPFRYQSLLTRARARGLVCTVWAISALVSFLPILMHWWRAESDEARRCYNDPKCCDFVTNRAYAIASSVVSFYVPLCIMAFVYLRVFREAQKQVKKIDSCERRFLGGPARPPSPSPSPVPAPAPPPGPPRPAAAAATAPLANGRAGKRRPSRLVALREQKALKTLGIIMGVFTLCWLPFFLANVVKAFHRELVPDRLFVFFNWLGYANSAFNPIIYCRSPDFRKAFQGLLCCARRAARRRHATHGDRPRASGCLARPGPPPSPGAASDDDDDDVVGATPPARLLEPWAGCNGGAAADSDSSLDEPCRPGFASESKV

[4] = target: T3, Type-1 angiotensin II receptor (Homo sapiens, UniProt P30556)
T3 sequence (P30556 whole entry): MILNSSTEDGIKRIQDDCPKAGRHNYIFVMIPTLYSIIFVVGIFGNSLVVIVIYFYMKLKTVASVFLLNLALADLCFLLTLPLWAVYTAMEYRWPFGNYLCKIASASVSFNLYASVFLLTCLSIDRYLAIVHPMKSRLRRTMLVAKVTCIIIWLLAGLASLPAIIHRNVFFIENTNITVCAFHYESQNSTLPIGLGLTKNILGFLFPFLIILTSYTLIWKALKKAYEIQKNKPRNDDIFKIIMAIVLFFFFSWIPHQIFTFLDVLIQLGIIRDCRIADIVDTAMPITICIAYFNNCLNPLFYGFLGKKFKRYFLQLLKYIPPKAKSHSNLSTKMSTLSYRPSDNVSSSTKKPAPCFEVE

[5] = target: Vasopressin V2 receptor (Homo sapiens, UniProt P30518)
Vasopressin V2 receptor, sequence (P30518 whole entry): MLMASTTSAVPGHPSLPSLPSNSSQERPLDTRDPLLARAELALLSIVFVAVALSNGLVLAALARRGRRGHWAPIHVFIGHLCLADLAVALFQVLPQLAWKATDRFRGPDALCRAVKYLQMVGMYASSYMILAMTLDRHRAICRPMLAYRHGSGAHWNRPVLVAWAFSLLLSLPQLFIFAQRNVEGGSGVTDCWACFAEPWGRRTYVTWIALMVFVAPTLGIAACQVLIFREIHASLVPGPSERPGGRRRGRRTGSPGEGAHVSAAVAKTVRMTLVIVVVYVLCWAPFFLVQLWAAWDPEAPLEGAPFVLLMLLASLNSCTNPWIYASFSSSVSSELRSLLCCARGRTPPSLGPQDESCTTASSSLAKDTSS

[6] = target: T4, Gastrin/cholecystokinin type B receptor (Homo sapiens, UniProt P32239)
T4 sequence (P32239 whole entry): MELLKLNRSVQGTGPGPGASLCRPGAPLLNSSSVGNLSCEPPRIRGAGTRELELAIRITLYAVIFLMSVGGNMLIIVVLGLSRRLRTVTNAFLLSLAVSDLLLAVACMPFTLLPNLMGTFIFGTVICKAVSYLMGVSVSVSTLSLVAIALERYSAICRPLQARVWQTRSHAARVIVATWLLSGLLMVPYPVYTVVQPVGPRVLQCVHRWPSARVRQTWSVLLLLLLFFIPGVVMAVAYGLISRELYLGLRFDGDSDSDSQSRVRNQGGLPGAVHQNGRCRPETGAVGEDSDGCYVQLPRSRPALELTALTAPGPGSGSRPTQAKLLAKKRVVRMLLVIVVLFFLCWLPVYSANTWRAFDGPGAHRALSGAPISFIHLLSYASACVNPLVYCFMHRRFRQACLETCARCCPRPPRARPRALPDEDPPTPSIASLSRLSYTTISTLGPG

[7] = target: Growth hormone secretagogue receptor type 1 (Homo sapiens, UniProt Q92847)
Growth hormone secretagogue receptor type 1, sequence (Q92847 whole entry): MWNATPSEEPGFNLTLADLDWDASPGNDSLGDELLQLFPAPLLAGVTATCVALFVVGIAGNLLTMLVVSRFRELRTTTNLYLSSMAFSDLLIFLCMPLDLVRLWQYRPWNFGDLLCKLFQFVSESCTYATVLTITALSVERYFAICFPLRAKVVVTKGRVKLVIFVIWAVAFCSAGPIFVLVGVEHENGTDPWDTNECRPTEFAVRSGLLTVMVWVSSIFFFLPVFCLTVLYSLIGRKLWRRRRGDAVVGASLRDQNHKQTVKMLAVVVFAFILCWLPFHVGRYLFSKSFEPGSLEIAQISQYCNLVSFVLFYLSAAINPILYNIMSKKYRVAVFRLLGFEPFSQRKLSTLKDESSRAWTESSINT

[8] = target: 5-hydroxytryptamine receptor 2A (Homo sapiens, UniProt P28223); type: functional, cell-based
5-hydroxytryptamine receptor 2A, sequence (P28223 whole entry): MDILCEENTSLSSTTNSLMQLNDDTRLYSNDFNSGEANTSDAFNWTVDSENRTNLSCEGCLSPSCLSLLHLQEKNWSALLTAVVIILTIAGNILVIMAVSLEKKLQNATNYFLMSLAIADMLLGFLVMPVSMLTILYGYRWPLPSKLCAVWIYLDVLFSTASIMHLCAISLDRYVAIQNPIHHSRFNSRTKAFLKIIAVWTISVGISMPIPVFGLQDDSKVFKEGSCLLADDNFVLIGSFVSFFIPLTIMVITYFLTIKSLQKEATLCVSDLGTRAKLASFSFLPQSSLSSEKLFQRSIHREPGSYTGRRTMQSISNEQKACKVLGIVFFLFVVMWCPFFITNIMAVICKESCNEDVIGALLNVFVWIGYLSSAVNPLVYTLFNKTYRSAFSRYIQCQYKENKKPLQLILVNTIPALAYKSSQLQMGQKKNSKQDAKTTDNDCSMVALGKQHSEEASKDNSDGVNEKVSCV

[9] = target: T5, Neuropeptide Y receptor type 1 (Homo sapiens, UniProt P25929)
T5 sequence (P25929 whole entry): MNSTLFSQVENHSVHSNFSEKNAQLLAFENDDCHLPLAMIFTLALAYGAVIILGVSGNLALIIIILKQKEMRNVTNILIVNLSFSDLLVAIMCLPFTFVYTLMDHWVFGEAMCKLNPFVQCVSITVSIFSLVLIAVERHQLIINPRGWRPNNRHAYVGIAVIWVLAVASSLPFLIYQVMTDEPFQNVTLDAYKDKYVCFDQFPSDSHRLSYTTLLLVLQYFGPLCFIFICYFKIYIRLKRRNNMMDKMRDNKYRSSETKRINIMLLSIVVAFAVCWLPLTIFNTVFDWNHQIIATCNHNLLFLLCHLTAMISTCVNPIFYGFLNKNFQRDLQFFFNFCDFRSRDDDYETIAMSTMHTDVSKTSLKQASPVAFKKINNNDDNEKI

[10] = target: T1, Mu-type opioid receptor; assay: biochemical; type: functional
[11] = target: T6, 5-hydroxytryptamine receptor 1A (Homo sapiens, UniProt P08908); type: functional, cell-based
T6 sequence (P08908 whole entry): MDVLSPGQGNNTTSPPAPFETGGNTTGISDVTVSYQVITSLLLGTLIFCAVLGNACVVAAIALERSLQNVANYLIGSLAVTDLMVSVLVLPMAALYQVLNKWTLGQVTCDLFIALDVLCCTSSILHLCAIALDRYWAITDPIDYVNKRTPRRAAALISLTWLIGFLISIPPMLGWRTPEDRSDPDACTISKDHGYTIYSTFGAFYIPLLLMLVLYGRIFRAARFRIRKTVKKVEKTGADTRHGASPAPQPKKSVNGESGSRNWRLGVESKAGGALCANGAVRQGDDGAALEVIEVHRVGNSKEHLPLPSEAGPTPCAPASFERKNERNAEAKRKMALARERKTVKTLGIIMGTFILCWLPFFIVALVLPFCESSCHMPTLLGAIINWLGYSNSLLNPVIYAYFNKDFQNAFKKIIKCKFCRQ

[12] = target: Beta-2 adrenergic receptor (Homo sapiens, UniProt P07550); type: functional, cell-based
Beta-2 adrenergic receptor, sequence (P07550 whole entry): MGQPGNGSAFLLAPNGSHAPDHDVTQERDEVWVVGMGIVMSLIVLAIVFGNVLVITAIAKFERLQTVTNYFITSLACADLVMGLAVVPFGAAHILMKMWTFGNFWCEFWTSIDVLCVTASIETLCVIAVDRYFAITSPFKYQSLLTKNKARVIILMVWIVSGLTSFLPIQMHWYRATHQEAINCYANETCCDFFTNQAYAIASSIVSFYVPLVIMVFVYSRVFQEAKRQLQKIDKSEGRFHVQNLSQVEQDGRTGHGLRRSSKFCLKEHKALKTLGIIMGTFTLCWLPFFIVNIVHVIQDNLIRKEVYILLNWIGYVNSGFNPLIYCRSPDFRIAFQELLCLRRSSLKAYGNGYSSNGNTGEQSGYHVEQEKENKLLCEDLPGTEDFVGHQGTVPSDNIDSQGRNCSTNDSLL

[13] = target: Cannabinoid receptor 1 (Homo sapiens, UniProt P21554)
Cannabinoid receptor 1, sequence (P21554 whole entry): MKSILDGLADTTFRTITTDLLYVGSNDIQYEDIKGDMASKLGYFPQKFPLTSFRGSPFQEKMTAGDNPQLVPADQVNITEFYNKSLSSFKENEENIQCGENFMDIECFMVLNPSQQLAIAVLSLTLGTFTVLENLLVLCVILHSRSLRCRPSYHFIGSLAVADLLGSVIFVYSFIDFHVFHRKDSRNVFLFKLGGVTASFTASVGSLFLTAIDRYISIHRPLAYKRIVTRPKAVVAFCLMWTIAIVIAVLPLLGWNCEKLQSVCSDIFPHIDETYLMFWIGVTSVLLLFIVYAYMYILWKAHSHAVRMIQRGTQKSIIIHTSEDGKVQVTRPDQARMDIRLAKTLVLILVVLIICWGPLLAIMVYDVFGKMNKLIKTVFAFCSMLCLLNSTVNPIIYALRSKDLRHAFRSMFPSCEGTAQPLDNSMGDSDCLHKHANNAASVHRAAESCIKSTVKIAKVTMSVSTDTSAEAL
Note: assay procedure not described here.

T1 sequence (P35372 whole entry): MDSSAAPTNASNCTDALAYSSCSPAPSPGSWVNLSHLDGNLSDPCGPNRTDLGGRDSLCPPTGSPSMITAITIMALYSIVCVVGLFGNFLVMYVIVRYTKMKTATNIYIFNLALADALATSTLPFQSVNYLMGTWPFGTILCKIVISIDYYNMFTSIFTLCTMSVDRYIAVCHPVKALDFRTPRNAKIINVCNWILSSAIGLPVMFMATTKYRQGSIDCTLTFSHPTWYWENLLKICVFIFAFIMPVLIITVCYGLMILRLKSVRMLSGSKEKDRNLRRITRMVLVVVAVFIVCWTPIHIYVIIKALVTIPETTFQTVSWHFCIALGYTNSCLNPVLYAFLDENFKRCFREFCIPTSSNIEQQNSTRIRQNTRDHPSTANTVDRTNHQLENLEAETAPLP

Row | Structure (SMILES) | AC50 [1] | AC50 [2] | AC50 [3] | AC50 [4] | AC50 [5] | AC50 [6] | AC50 [7] | AC50 [8] | AC50 [9] | AC50 [10] | AC50 [11] | AC50 [12] | AC50 [13]
1 | O=C(O)c1cccc(-c2noc(-c3ccccc3F)n2)c1 | > 30 µM |  |  |  |  |  |  |  |  |  |  |  | 
2 | NS(=O)(=O)c1cc(-c2nnn[nH]2)c(NCc2cccs2)cc1Cl [AZOSEMIDE] |  | > 30 µM | > 30 µM | > 30 µM | > 30 µM | > 30 µM | > 30 µM | > 30 µM | > 30 µM | > 30 µM |  |  | 
3 | C[N+](C)(C)CC(=O)O [BETAINE] |  | > 30 µM | > 30 µM | > 30 µM | > 30 µM | > 30 µM | > 30 µM | > 30 µM | > 30 µM | > 30 µM | > 30 µM |  | 
4 | CCCC(=O)N1CCCN(c2nc(N)c3cc(OC)c(OC)cc3n2)CC1 [BUNAZOSIN] |  | > 30 µM | > 30 µM | > 30 µM | > 30 µM | > 30 µM | > 30 µM | > 30 µM | > 30 µM | > 30 µM | > 30 µM | > 30 µM | 
5 | N[C@@H](CSCC(=O)O)C(=O)O [CARBOCYSTEINE] |  | > 30 µM | > 30 µM | > 30 µM | > 30 µM | > 30 µM | > 30 µM | > 30 µM | > 30 µM | > 30 µM | > 30 µM |  | 
6 | CC(C)(N)Cc1ccc(Cl)cc1 [CHLORPHENTERMINE] | > 30 µM | > 30 µM | > 10 µM | > 30 µM | > 30 µM | > 30 µM | > 30 µM | > 30 µM | > 30 µM |  | > 10 µM | > 30 µM | > 10 µM
7 | CN(C)[C@@H]1C(O)=C(C(N)=O)C(=O)[C@@]2(O)C(O)=C3C(=O)c4c(O)ccc(Cl)c4[C@@H](O)[C@H]3C[C@@H]12 [DEMECLOCYCLINE] | > 30 µM | > 10 µM | > 10 µM | > 10 µM | > 10 µM |  | > 10 µM | > 10 µM | > 10 µM |  | > 10 µM |  | > 10 µM
8 | NS(=O)(=O)c1cc(Cl)c(Cl)c(S(N)(=O)=O)c1 [DICHLORPHENAMIDE] | > 30 µM | > 10 µM | > 10 µM | > 10 µM | > 10 µM |  | > 10 µM | > 10 µM | > 10 µM |  | > 10 µM | > 30 µM | > 10 µM
9 | C=C1C[C@@H]2[C@H](CC[C@]3(C)C(=O)CC[C@@H]23)[C@@]2(C)C=CC(=O)C=C12 [EXEMESTANE] | > 30 µM | > 30 µM | > 10 µM | > 30 µM | > 30 µM | > 30 µM | > 30 µM | > 30 µM | > 30 µM |  | > 10 µM | > 30 µM | > 10 µM
10 | CC(C(O)c1ccc(O)cc1)N1CCC(Cc2ccccc2)CC1 (stereo unspecified) [IFENPRODIL] |  | > 30 µM | 23 µM | > 30 µM | > 30 µM | > 30 µM | > 30 µM | 9.6 µM | > 30 µM | > 30 µM |  | > 30 µM | 
11 | CC(=O)N(CC(O)CO)c1c(I)c(C(=O)NCC(O)CO)c(I)c(C(=O)NCC(O)CO)c1I (stereo unspecified) [IOHEXOL] | > 30 µM | > 30 µM | > 30 µM | > 30 µM | > 30 µM | > 30 µM | > 30 µM | > 30 µM | > 30 µM |  | > 10 µM |  | 
12 | CN(CCCN1c2ccccc2CCc2ccccc21)CC(=O)c1ccc(Cl)cc1 [LOFEPRAMINE] |  | > 30 µM | > 30 µM | > 30 µM | > 30 µM | > 30 µM | 25 µM | 6.6 µM | > 30 µM | > 30 µM |  | > 30 µM | 6.9 µM
13 | CC(=O)O[C@]1(C(C)=O)CC[C@H]2[C@@H]3C[C@H](C)C4=CC(=O)CC[C@]4(C)[C@H]3CC[C@@]21C [MEDROXYPROGESTERONE ACETATE] |  | > 30 µM | > 30 µM | > 30 µM | > 30 µM | > 30 µM | > 30 µM |  | > 30 µM |  |  |  | 
14 | CN(C/C=C/c1ccccc1)Cc1cccc2ccccc12 [NAFTIFINE] | > 30 µM | > 30 µM | > 30 µM | > 30 µM | > 30 µM | > 30 µM | > 30 µM |  | > 30 µM |  | > 10 µM | > 30 µM | 9.87 µM
15 | CC(C)NCC1CCc2cc(CO)c([N+](=O)[O-])cc2N1 (stereo unspecified) [OXAMNIQUINE] | > 30 µM | > 10 µM | > 10 µM | > 10 µM | > 10 µM |  | > 10 µM | > 30 µM | > 10 µM |  | > 30 µM |  | > 10 µM
16 | O=C(O)CCn1c2c(c3ccccc31)C[C@H](NS(=O)(=O)c1ccc(F)cc1)CC2 [RAMATROBAN] | > 30 µM | > 30 µM | > 30 µM | > 30 µM | > 30 µM | > 30 µM | > 30 µM | > 10 µM | > 30 µM | > 30 µM | > 10 µM |  | > 10 µM
17 | O=P(O)(O)C(O)(Cc1cccnc1)P(=O)(O)O [RISEDRONIC ACID] | > 30 µM | > 30 µM | > 30 µM | > 30 µM | > 30 µM | > 30 µM | > 30 µM |  | > 30 µM | > 30 µM | > 10 µM |  | > 30 µM
18 | O=C1CCC(N2C(=O)c3ccccc3C2=O)C(=O)N1 (stereo unspecified) [THALIDOMIDE] | > 30 µM | > 30 µM | > 10 µM | > 30 µM | > 30 µM | > 30 µM | > 30 µM |  | > 30 µM |  | > 10 µM | > 30 µM | > 10 µM
19 | CC(=O)N[C@H]1[C@H]([C@H](O)[C@H](O)CO)OC(C(=O)O)=C[C@@H]1N=C(N)N [ZANAMIVIR] | > 30 µM | > 30 µM | > 30 µM | > 30 µM | > 30 µM | > 30 µM | > 30 µM | > 30 µM | > 30 µM | > 30 µM | > 30 µM |  | > 30 µM
